From ChEMBL document CHEMBL1828549, “Novel C-4'' modified azithromycin analogs with remarkably enhanced activity against erythromycin-resistant Streptococcus pneumoniae: the synthesis and antimicrobial evaluation” (2011)
≈ marks a conversion by molar mass, not a printed value.

How the values were obtained:
[1] = system: Streptococcus pneumoniae; assay: Antibacterial activity against erythromycin-resistant Streptococcus pneumoniae B1 expressing erm gene by the broth microdilution method; type: functional
[2] = system: Streptococcus pneumoniae; assay: Ratio of erythromycin-A MIC to compound MIC for erythromycin-resistant Streptococcus pneumoniae A22072 expressing mef gene; type: functional
[3] = system: Streptococcus pneumoniae; assay: Ratio of MIC for erythromycin-resistant Streptococcus pneumoniae B1 expressing erm gene to MIC of reference compound for the same strain
[4] = system: Staphylococcus aureus; assay: Antibacterial activity against erythromycin-susceptible Staphylococcus aureus ATCC 25923 by the broth microdilution method; type: functional
[5] = system: Staphylococcus aureus; assay: Antibacterial activity against […] Staphylococcus aureus ATCC 29213 by the broth microdilution method; type: functional
[6] = system: Streptococcus pneumoniae; assay: Antibacterial activity against erythromycin-susceptible Streptococcus pneumoniae ATCC 49619 by the broth microdilution method; type: functional
[7] = system: Streptococcus pneumoniae; assay: Antibacterial activity against erythromycin-resistant Streptococcus pneumoniae AB11 expressing erm and mef gene by the broth microdilution method; type: functional
[8] = system: Streptococcus pneumoniae; assay: Ratio of MIC for Streptococcus pneumoniae AB11 expressing erm and mef gene to MIC of reference compound for the same strain
[9] = system: Streptococcus pneumoniae; assay: Ratio of azithromycin MIC to compound MIC for erythromycin-resistant Streptococcus pneumoniae A22072 expressing mef gene; type: functional
[10] = system: Streptococcus pneumoniae; assay: Antibacterial activity against erythromycin-resistant Streptococcus pneumoniae A22072 expressing mef gene by the broth microdilution method; type: functional
[11] = system: Staphylococcus aureus; assay: Antibacterial activity against penicillin-resistant Staphylococcus aureus by the broth microdilution method; type: functional

CC[C@H]1OC(=O)[C@H](C)[C@@H](O[C@H]2C[C@@](C)(OC)[C@@H](OC(=O)NNC(=O)c3ccc(C)cc3)[C@H](C)O2)[C@H](C)[C@@H](O[C@@H]2O[C@H](C)C[C@H](N(C)C)[C@H]2O)[C@](C)(O)C[C@@H](C)CN(C)[C@H](C)[C@H]2OC(=O)O[C@@]21C
MIC [1]: 2 µg/mL (≈ 2.1 µM) | Ratio [2]: 64 | Ratio [3]: 64 | MIC [4]: 4 µg/mL (≈ 4.21 µM) | MIC [5]: 4 µg/mL (≈ 4.21 µM) | MIC [6]: 1 µg/mL (≈ 1.05 µM) | MIC [7]: 16 µg/mL (≈ 16.8 µM) | Ratio [8]: 16 | Ratio [9]: 32 | MIC [10]: 0.12 µg/mL (≈ 0.126 µM) | MIC [11]: 4 µg/mL (≈ 4.21 µM)

CC[C@H]1OC(=O)[C@H](C)[C@@H](O[C@H]2C[C@@](C)(OC)[C@@H](OC(=O)NCCNC(=O)c3ccc(Cl)cc3Cl)[C@H](C)O2)[C@H](C)[C@@H](O[C@@H]2O[C@H](C)C[C@H](N(C)C)[C@H]2O)[C@](C)(O)C[C@@H](C)CN(C)[C@H](C)[C@H]2OC(=O)O[C@@]21C
MIC [1]: 16 µg/mL (≈ 15.5 µM) | MIC [4]: 4 µg/mL (≈ 3.87 µM) | MIC [5]: 8 µg/mL (≈ 7.74 µM) | MIC [6]: 0.5 µg/mL (≈ 0.484 µM) | MIC [7]: 64 µg/mL (≈ 61.9 µM) | MIC [10]: 2 µg/mL (≈ 1.93 µM) | MIC [11]: 4 µg/mL (≈ 3.87 µM)

CC[C@H]1OC(=O)[C@H](C)[C@@H](O[C@H]2C[C@@](C)(OC)[C@@H](OC(=O)NCCNC(=O)c3ccc([N+](=O)[O-])cc3)[C@H](C)O2)[C@H](C)[C@@H](O[C@@H]2O[C@H](C)C[C@H](N(C)C)[C@H]2O)[C@](C)(O)C[C@@H](C)CN(C)[C@H](C)[C@H]2OC(=O)O[C@@]21C
MIC [1]: 4 µg/mL (≈ 3.96 µM) | MIC [4]: 4 µg/mL (≈ 3.96 µM) | MIC [5]: 16 µg/mL (≈ 15.8 µM) | MIC [6]: 0.5 µg/mL (≈ 0.495 µM) | MIC [7]: 64 µg/mL (≈ 63.4 µM) | MIC [10]: 0.5 µg/mL (≈ 0.495 µM) | MIC [11]: 1 µg/mL (≈ 0.99 µM)

CC[C@H]1OC(=O)[C@H](C)[C@@H](O[C@H]2C[C@@](C)(OC)[C@@H](OC(=O)NCCNC(=O)c3cc([N+](=O)[O-])cc([N+](=O)[O-])c3)[C@H](C)O2)[C@H](C)[C@@H](O[C@@H]2O[C@H](C)C[C@H](N(C)C)[C@H]2O)[C@](C)(O)C[C@@H](C)CN(C)[C@H](C)[C@H]2OC(=O)O[C@@]21C
MIC [1]: 1 µg/mL (≈ 0.948 µM) | Ratio [2]: 64 | Ratio [3]: 128 | MIC [4]: 16 µg/mL (≈ 15.2 µM) | MIC [5]: 8 µg/mL (≈ 7.58 µM) | MIC [6]: 0.12 µg/mL (≈ 0.114 µM) | MIC [7]: 8 µg/mL (≈ 7.58 µM) | Ratio [8]: 32 | Ratio [9]: 32 | MIC [10]: 0.12 µg/mL (≈ 0.114 µM) | MIC [11]: 1 µg/mL (≈ 0.948 µM)

CC[C@H]1OC(=O)[C@H](C)[C@@H](O[C@H]2C[C@@](C)(OC)[C@@H](OC(=O)NCCCCNC(=O)c3ccc(OC)cc3)[C@H](C)O2)[C@H](C)[C@@H](O[C@@H]2O[C@H](C)C[C@H](N(C)C)[C@H]2O)[C@](C)(O)C[C@@H](C)CN(C)[C@H](C)[C@H]2OC(=O)O[C@@]21C
MIC [1]: 4 µg/mL (≈ 3.91 µM) | MIC [4]: 4 µg/mL (≈ 3.91 µM) | MIC [5]: 32 µg/mL (≈ 31.3 µM) | MIC [6]: 1 µg/mL (≈ 0.977 µM) | MIC [7]: 16 µg/mL (≈ 15.6 µM) | MIC [10]: 0.25 µg/mL (≈ 0.244 µM) | MIC [11]: 1 µg/mL (≈ 0.977 µM)

CC[C@H]1OC(=O)[C@H](C)[C@@H](O[C@H]2C[C@@](C)(OC)[C@@H](OC(=O)NCCCCNC(=O)c3ccccc3OC)[C@H](C)O2)[C@H](C)[C@@H](O[C@@H]2O[C@H](C)C[C@H](N(C)C)[C@H]2O)[C@](C)(O)C[C@@H](C)CN(C)[C@H](C)[C@H]2OC(=O)O[C@@]21C
MIC [1]: 4 µg/mL (≈ 3.91 µM) | MIC [4]: 4 µg/mL (≈ 3.91 µM) | MIC [5]: 16 µg/mL (≈ 15.6 µM) | MIC [6]: 2 µg/mL (≈ 1.95 µM) | MIC [7]: 16 µg/mL (≈ 15.6 µM) | MIC [10]: 0.5 µg/mL (≈ 0.489 µM) | MIC [11]: 32 µg/mL (≈ 31.3 µM)

CC[C@H]1OC(=O)[C@H](C)[C@@H](O[C@H]2C[C@@](C)(OC)[C@@H](OC(=O)NCCCCNC(=O)c3ccc(OC)c(OC)c3)[C@H](C)O2)[C@H](C)[C@@H](O[C@@H]2O[C@H](C)C[C@H](N(C)C)[C@H]2O)[C@](C)(O)C[C@@H](C)CN(C)[C@H](C)[C@H]2OC(=O)O[C@@]21C
MIC [1]: 32 µg/mL (≈ 30.4 µM) | MIC [4]: 8 µg/mL (≈ 7.6 µM) | MIC [5]: 64 µg/mL (≈ 60.8 µM) | MIC [6]: 2 µg/mL (≈ 1.9 µM) | MIC [7]: 32 µg/mL (≈ 30.4 µM) | MIC [10]: 1 µg/mL (≈ 0.949 µM) | MIC [11]: 16 µg/mL (≈ 15.2 µM)

CC[C@H]1OC(=O)[C@H](C)[C@@H](O[C@H]2C[C@@](C)(OC)[C@@H](OC(=O)NCCCCNC(=O)c3ccc(C)cc3)[C@H](C)O2)[C@H](C)[C@@H](O[C@@H]2O[C@H](C)C[C@H](N(C)C)[C@H]2O)[C@](C)(O)C[C@@H](C)CN(C)[C@H](C)[C@H]2OC(=O)O[C@@]21C
MIC [1]: 8 µg/mL (≈ 7.94 µM) | MIC [4]: 4 µg/mL (≈ 3.97 µM) | MIC [5]: 32 µg/mL (≈ 31.8 µM) | MIC [6]: 0.5 µg/mL (≈ 0.496 µM) | MIC [7]: 16 µg/mL (≈ 15.9 µM) | MIC [10]: 1 µg/mL (≈ 0.993 µM) | MIC [11]: 64 µg/mL (≈ 63.5 µM)

CC[C@H]1OC(=O)[C@H](C)[C@@H](O[C@H]2C[C@@](C)(OC)[C@@H](OC(=O)NCCCCNC(=O)c3ccc(F)cc3)[C@H](C)O2)[C@H](C)[C@@H](O[C@@H]2O[C@H](C)C[C@H](N(C)C)[C@H]2O)[C@](C)(O)C[C@@H](C)CN(C)[C@H](C)[C@H]2OC(=O)O[C@@]21C
MIC [1]: 32 µg/mL (≈ 31.6 µM) | MIC [4]: 8 µg/mL (≈ 7.91 µM) | MIC [5]: 16 µg/mL (≈ 15.8 µM) | MIC [6]: 0.5 µg/mL (≈ 0.494 µM) | MIC [7]: 64 µg/mL (≈ 63.3 µM) | MIC [10]: 8 µg/mL (≈ 7.91 µM) | MIC [11]: 32 µg/mL (≈ 31.6 µM)

CC[C@H]1OC(=O)[C@H](C)[C@@H](O[C@H]2C[C@@](C)(OC)[C@@H](OC(=O)NCCCCNC(=O)c3ccc(Cl)cc3)[C@H](C)O2)[C@H](C)[C@@H](O[C@@H]2O[C@H](C)C[C@H](N(C)C)[C@H]2O)[C@](C)(O)C[C@@H](C)CN(C)[C@H](C)[C@H]2OC(=O)O[C@@]21C
MIC [1]: 8 µg/mL (≈ 7.78 µM) | MIC [4]: 4 µg/mL (≈ 3.89 µM) | MIC [5]: 8 µg/mL (≈ 7.78 µM) | MIC [6]: 0.5 µg/mL (≈ 0.487 µM) | MIC [7]: 16 µg/mL (≈ 15.6 µM) | MIC [10]: 1 µg/mL (≈ 0.973 µM) | MIC [11]: 64 µg/mL (≈ 62.3 µM)

CC[C@H]1OC(=O)[C@H](C)[C@@H](O[C@H]2C[C@@](C)(OC)[C@@H](OC(=O)NCCCCNC(=O)c3ccc(Br)cc3)[C@H](C)O2)[C@H](C)[C@@H](O[C@@H]2O[C@H](C)C[C@H](N(C)C)[C@H]2O)[C@](C)(O)C[C@@H](C)CN(C)[C@H](C)[C@H]2OC(=O)O[C@@]21C
MIC [1]: 8 µg/mL (≈ 7.46 µM) | MIC [4]: 8 µg/mL (≈ 7.46 µM) | MIC [5]: 32 µg/mL (≈ 29.8 µM) | MIC [6]: 1 µg/mL (≈ 0.933 µM) | MIC [7]: 16 µg/mL (≈ 14.9 µM) | MIC [10]: 1 µg/mL (≈ 0.933 µM) | MIC [11]: 32 µg/mL (≈ 29.8 µM)

CC[C@H]1OC(=O)[C@H](C)[C@@H](O[C@H]2C[C@@](C)(OC)[C@@H](OC(=O)NCCCCNC(=O)c3ccc(Cl)cc3Cl)[C@H](C)O2)[C@H](C)[C@@H](O[C@@H]2O[C@H](C)C[C@H](N(C)C)[C@H]2O)[C@](C)(O)C[C@@H](C)CN(C)[C@H](C)[C@H]2OC(=O)O[C@@]21C
MIC [1]: 4 µg/mL (≈ 3.77 µM) | MIC [4]: 2 µg/mL (≈ 1.88 µM) | MIC [5]: 16 µg/mL (≈ 15.1 µM) | MIC [6]: 1 µg/mL (≈ 0.941 µM) | MIC [7]: 16 µg/mL (≈ 15.1 µM) | MIC [10]: 1 µg/mL (≈ 0.941 µM) | MIC [11]: 64 µg/mL (≈ 60.3 µM)

CC[C@H]1OC(=O)[C@H](C)[C@@H](O[C@H]2C[C@@](C)(OC)[C@@H](OC(=O)NCCCCNC(=O)c3ccc([N+](=O)[O-])cc3)[C@H](C)O2)[C@H](C)[C@@H](O[C@@H]2O[C@H](C)C[C@H](N(C)C)[C@H]2O)[C@](C)(O)C[C@@H](C)CN(C)[C@H](C)[C@H]2OC(=O)O[C@@]21C
MIC [1]: 2 µg/mL (≈ 1.93 µM) | MIC [4]: 4 µg/mL (≈ 3.85 µM) | MIC [5]: 4 µg/mL (≈ 3.85 µM) | MIC [6]: 0.12 µg/mL (≈ 0.116 µM) | MIC [7]: 16 µg/mL (≈ 15.4 µM) | MIC [10]: 0.5 µg/mL (≈ 0.482 µM) | MIC [11]: 32 µg/mL (≈ 30.8 µM)

CC[C@H]1OC(=O)[C@H](C)[C@@H](O[C@H]2C[C@@](C)(OC)[C@@H](O)[C@H](C)O2)[C@H](C)[C@@H](O[C@@H]2O[C@H](C)C[C@H](N(C)C)[C@H]2O)[C@](C)(O)C[C@@H](C)CN(C)[C@H](C)[C@@H](O)[C@]1(C)O [AZITHROMYCIN]
MIC [1]: 128 µg/mL (≈ 171 µM) | MIC [4]: 0.25 µg/mL (≈ 0.334 µM) | MIC [5]: 1 µg/mL (≈ 1.34 µM) | MIC [6]: 0.03 µg/mL (≈ 0.0401 µM) | MIC [7]: 256 µg/mL (≈ 342 µM) | MIC [10]: 4 µg/mL (≈ 5.34 µM) | MIC [11]: 0.12 µg/mL (≈ 0.16 µM)

CC[C@H]1OC(=O)[C@H](C)[C@@H](O[C@H]2C[C@@](C)(OC)[C@@H](O)[C@H](C)O2)[C@H](C)[C@@H](O[C@@H]2O[C@H](C)C[C@H](N(C)C)[C@H]2O)[C@](C)(O)C[C@@H](C)C(=O)[C@H](C)[C@@H](O)[C@]1(C)O [ERYTHROMYCIN]
MIC [1]: 128 µg/mL (≈ 174 µM) | MIC [4]: 0.06 µg/mL (≈ 0.0818 µM) | MIC [5]: 0.12 µg/mL (≈ 0.164 µM) | MIC [6]: 0.03 µg/mL (≈ 0.0409 µM) | MIC [7]: 256 µg/mL (≈ 349 µM) | MIC [10]: 8 µg/mL (≈ 10.9 µM) | MIC [11]: 0.25 µg/mL (≈ 0.341 µM)
